Experiments:
[1] = Antioxidant activity assessed as superoxide dismutase-like activity by measuring inhibition of superoxide radical anion production at 2 uM by NBT reduction assay relative to control; format: functional
CCRF-CEM = assay: Growth inhibition of human CCRF-CEM cells incubated for 48 hrs by sulforhodamine B assay; format: functional
HL-60(TB) = assay: Growth inhibition of human HL-60(TB) cells incubated for 48 hrs by sulforhodamine B assay; format: functional; settings: HL-60, 48 h
K562 = assay: Growth inhibition of human K562 cells incubated for 48 hrs by sulforhodamine B assay; format: functional; settings: K562, 48 h
MOLT-4 = assay: Growth inhibition of human MOLT4 cells incubated for 48 hrs by sulforhodamine B assay; format: functional; settings: MOLT-4, 48 h
RPMI-8226 = assay: Growth inhibition of human RPMI8226 cells incubated for 48 hrs by sulforhodamine B assay; format: functional; settings: RPMI-8226, 48 h
SR = assay: Growth inhibition of human SR cells incubated for 48 hrs by sulforhodamine B assay; format: functional
A549 = assay: Growth inhibition of human A549/ATCC cells incubated for 48 hrs by sulforhodamine B assay; format: functional; settings: A549, 48 h
HOP-62 = assay: Growth inhibition of human HOP62 cells incubated for 48 hrs by sulforhodamine B assay; format: functional; settings: HOP-62, 48 h
HOP-92 = assay: Growth inhibition of human HOP92 cells incubated for 48 hrs by sulforhodamine B assay; format: functional; settings: HOP-92, 48 h
NCI-H226 = assay: Growth inhibition of human NCI-H226 cells incubated for 48 hrs by sulforhodamine B assay; format: functional; settings: NCI-H226, 48 h
NCI-H23 = assay: Growth inhibition of human NCI-H23 cells incubated for 48 hrs by sulforhodamine B assay; format: functional; settings: NCI-H23, 48 h
NCI-H460 = assay: Growth inhibition of human NCI-H460 cells incubated for 48 hrs by sulforhodamine B assay; format: functional; settings: NCI-H460, 48 h
NCI-H522 = assay: Growth inhibition of human NCI-H522 cells incubated for 48 hrs by sulforhodamine B assay; format: functional; settings: NCI-H522, 48 h
COLO 205 = assay: Growth inhibition of human COLO205 cells incubated for 48 hrs by sulforhodamine B assay; format: functional; settings: COLO 205, 48 h
HCC 2998 = assay: Growth inhibition of human HCC2998 cells incubated for 48 hrs by sulforhodamine B assay; format: functional; settings: HCC 2998, 48 h
HCT-116 = assay: Growth inhibition of human HCT116 cells incubated for 48 hrs by sulforhodamine B assay; format: functional; settings: HCT-116, 48 h
HCT-15 = assay: Growth inhibition of human HCT15 cells incubated for 48 hrs by sulforhodamine B assay; format: functional; settings: HCT-15, 48 h
HT-29 = assay: Growth inhibition of human HT-29 cells incubated for 48 hrs by sulforhodamine B assay; format: functional; settings: HT-29, 48 h
KM12 = assay: Growth inhibition of human KM12 cells incubated for 48 hrs by sulforhodamine B assay; format: functional; settings: KM12, 48 h
SW-620 = assay: Growth inhibition of human SW620 cells incubated for 48 hrs by sulforhodamine B assay; format: functional; settings: SW-620, 48 h
SF-268 = assay: Growth inhibition of human SF268 cells incubated for 48 hrs by sulforhodamine B assay; format: functional; settings: SF-268, 48 h
SF-295 = assay: Growth inhibition of human SF295 cells incubated for 48 hrs by sulforhodamine B assay; format: functional; settings: SF-295, 48 h
SF-539 = assay: Growth inhibition of human SF539 cells incubated for 48 hrs by sulforhodamine B assay; format: functional; settings: SF-539, 48 h
SNB-19 = assay: Growth inhibition of human SNB19 cells incubated for 48 hrs by sulforhodamine B assay; format: functional; settings: SNB-19, 48 h
U-251 = assay: Growth inhibition of human U251 cells incubated for 48 hrs by sulforhodamine B assay; format: functional; settings: U-251, 48 h
LOX IMVI = assay: Growth inhibition of human LOXIMVI cells incubated for 48 hrs by sulforhodamine B assay; format: functional
M14 = assay: Growth inhibition of human M14 cells incubated for 48 hrs by sulforhodamine B assay; format: functional; settings: M14, 48 h
MDA-MB-435 = assay: Growth inhibition of human MDA-MB-435 cells incubated for 48 hrs by sulforhodamine B assay; format: functional; settings: MDA-MB-435, 48 h
SK-MEL-2 = assay: Growth inhibition of human SK-MEL-2 cells incubated for 48 hrs by sulforhodamine B assay; format: functional; settings: SK-MEL-2, 48 h
SK-MEL-28 = assay: Growth inhibition of human SK-MEL-28 cells incubated for 48 hrs by sulforhodamine B assay; format: functional; settings: SK-MEL-28, 48 h
SK-MEL-5 = assay: Growth inhibition of human SK-MEL-5 cells incubated for 48 hrs by sulforhodamine B assay; format: functional; settings: SK-MEL-5, 48 h
UACC-257 = assay: Growth inhibition of human UACC257 cells incubated for 48 hrs by sulforhodamine B assay; format: functional; settings: UACC-257, 48 h
UACC-62 = assay: Growth inhibition of human UACC62 cells incubated for 48 hrs by sulforhodamine B assay; format: functional; settings: UACC-62, 48 h
OVCAR-3 = assay: Growth inhibition of human OVCAR3 cells incubated for 48 hrs by sulforhodamine B assay; format: functional; settings: OVCAR-3, 48 h
OVCAR-8 = assay: Growth inhibition of human OVCAR8 cells incubated for 48 hrs by sulforhodamine B assay; format: functional; settings: OVCAR-8, 48 h
NCI/ADR-RES = assay: Growth inhibition of human NCI/ADR-RES cells incubated for 48 hrs by sulforhodamine B assay; format: functional
SK-OV-3 = assay: Growth inhibition of human SKOV3 cells incubated for 48 hrs by sulforhodamine B assay; format: functional; settings: SK-OV-3, 48 h
786-0 = assay: Growth inhibition of human 786-O cells incubated for 48 hrs by sulforhodamine B assay; format: functional; settings: 786-0, 48 h
ACHN = assay: Growth inhibition of human ACHN cells incubated for 48 hrs by sulforhodamine B assay; format: functional
CAKI-1 = assay: Growth inhibition of human Caki1 cells incubated for 48 hrs by sulforhodamine B assay; format: functional; settings: CAKI-1, 48 h
SN12C = assay: Growth inhibition of human SN12C cells incubated for 48 hrs by sulforhodamine B assay; format: functional
TK-10 = assay: Growth inhibition of human TK10 cells incubated for 48 hrs by sulforhodamine B assay; format: functional; settings: TK-10, 48 h
PC-3 = assay: Growth inhibition of human PC3 cells incubated for 48 hrs by sulforhodamine B assay; format: functional; settings: PC-3, 48 h
DU-145 = assay: Growth inhibition of human DU145 cells incubated for 48 hrs by sulforhodamine B assay; format: functional; settings: DU-145, 48 h
MCF7 = assay: Growth inhibition of human MCF7 cells incubated for 48 hrs by sulforhodamine B assay; format: functional; settings: MCF7, 48 h
Hs-578T = assay: Growth inhibition of human Hs 578T cells incubated for 48 hrs by sulforhodamine B assay; format: functional
BT-549 = assay: Growth inhibition of human BT549 cells incubated for 48 hrs by sulforhodamine B assay; format: functional; settings: BT-549, 48 h
T47D = assay: Growth inhibition of human T47D cells incubated for 48 hrs by sulforhodamine B assay; format: functional
MDA-MB-468 = assay: Growth inhibition of human MDA-MB-468 cells incubated for 48 hrs by sulforhodamine B assay; format: functional; settings: MDA-MB-468, 48 h
WI-38 = assay: Cytotoxicity against human WI38 cells assessed as reduction in cell viability after 24 hrs by MTT assay; format: cell-based; settings: WI-38, 24 h
WISH = assay: Cytotoxicity against human WISH cells assessed as reduction in cell viability after 24 hrs by MTT assay; format: cell-based
Escherichia coli = assay: Induction of Escherichia coli genomic DNA cleavage after 1 hr by agarose gel electrophoresis method
Homo sapiens = species: Homo sapiens; assay: Inhibition of PTK in human MCF7 cells at 1 uM preincubated for 2 hrs followed by poly-Glu-Tyr substrate addition by ELISA relative to control; format: cell-based
[2] = Growth inhibition of human NCI60 cells at 10 uM after 48 hrs by SRB assay relative to control; values are per cent of control; settings: NCI60, 48 h

With `N#Cc1ccc(-c2ccc(-c3ccc(Cl)cc3)s2)cc1F` the inhibition [1] was 35.3%.
`N=C(N)c1ccc(-c2ccc(-c3cc(Cl)cc(Cl)c3)s2)cc1` showed a GI50 (CCRF-CEM) of 1540 nM, a GI50 (HL-60(TB)) of 1070 nM and a GI50 (K562) of 225 nM. It also gave a GI50 (MOLT-4) of 1180 nM, a GI50 (RPMI-8226) of 639 nM and a GI50 (SR) of 284 nM. It also gave a GI50 (A549) of 1520 nM, a GI50 (HOP-62) of 1690 nM and a GI50 (HOP-92) of 1710 nM. For the same molecule, the GI50 (NCI-H226) was 2090 nM, the GI50 (NCI-H23) was 1750 nM and the GI50 (NCI-H460) was 375 nM. The GI50 (NCI-H522) was 2350 nM, the GI50 (COLO 205) was 304 nM and the GI50 (HCC 2998) was 634 nM. The GI50 (HCT-116) was 468 nM, the GI50 (HCT-15) was 255 nM and the GI50 (HT-29) was 379 nM. It also gave a GI50 (KM12) of 698 nM, a GI50 (SW-620) of 318 nM and a GI50 (SF-268) of 1630 nM. For the same molecule, the GI50 (SF-295) was 1380 nM, the GI50 (SF-539) was 1970 nM and the GI50 (SNB-19) was 1200 nM. For the same molecule, the GI50 (U-251) was 254 nM, the GI50 (LOX IMVI) was 155 nM and the GI50 (M14) was 1540 nM. For the same molecule, the GI50 (MDA-MB-435) was 1520 nM, the GI50 (SK-MEL-2) was 1990 nM and the GI50 (SK-MEL-28) was 1710 nM. For the same molecule, the GI50 (SK-MEL-5) was 1600 nM, the GI50 (UACC-257) was 2480 nM and the GI50 (UACC-62) was 1550 nM. For the same molecule, the GI50 (OVCAR-3) was 1700 nM, the GI50 (OVCAR-8) was 2420 nM and the GI50 (NCI/ADR-RES) was 1930 nM. For the same molecule, the GI50 (SK-OV-3) was 454 nM, the GI50 (786-0) was 1310 nM and the GI50 (ACHN) was 1890 nM. For the same molecule, the GI50 (CAKI-1) was 1510 nM, the GI50 (SN12C) was 1570 nM and the GI50 (TK-10) was 1870 nM. It also gave a GI50 (PC-3) of 1750 nM, a GI50 (DU-145) of 970 nM and a GI50 (MCF7) of 193 nM. For the same molecule, the GI50 (Hs-578T) was 2050 nM, the GI50 (BT-549) was 2050 nM and the GI50 (T47D) was 1480 nM. The GI50 (MDA-MB-468) was 1030 nM, the IC50 (WI-38) was 138000 nM and the IC50 (WISH) was 156000 nM. For the same molecule, the inhibition [1] was 62.3%, the Activity (Escherichia coli) was “Dose-dependent effect” and the inhibition (Homo sapiens) was 19 to 36%. It also gave a growth percent at 10 µM [2] of -70.3%.
With `COc1ccc(-c2ccc(-c3ccc(C#N)c(F)c3)s2)cc1` the inhibition [1] was 35%.
In the case of `CN(C)c1ccc(-c2ccc(-c3ccc(C(=N)N)cc3)s2)cc1`, the inhibition [1] is reported as 58% and the Activity (Escherichia coli) is reported as “Dose-dependent effect”.
Molecule `N=C(N)c1ccc(-c2ccc(-c3cccs3)s2)cc1F` has a growth percent at 10 µM [2] of -72.5%.
